Results as given in patent US10485235B2, “Aryloxypyrimidinyl ethers as herbicides” (FMC Corporation, priority 2015, dated 2019).

tested on: barnyardgrass (Echinochloa crus-galli); experiment: Test A preemergence, barnyardgrass; assay type: in vivo; details: Preemergence, 31 g ai/ha; 0 to 100 scale (0 no effect, 100 complete control)
From the text: (§1) Seeds of plant species selected from barnyardgrass (Echinochloa crus-galli), kochia (Kochia scoparia), ragweed (common ragweed, Ambrosia elatior), ryegrass, Italian (Italian ryegrass, Lolium multiflorum), foxtail, giant (giant foxtail, Setaria faberii), and pigweed (Amaranthus retroflexus), were planted into a blend of loam soil and sand and treated preemergence with a directed soil spray using test chemicals formulated in a non-phytotoxic solvent mixture which included a surfactant.
(§2) At the same time, plants selected from these weed species and also wheat (Triticum aestivum), corn (Zea mays), blackgrass (Alopecurus myosuroides), and galium (catchweed bedstraw, Galium aparine), were planted in pots containing the same blend of loam soil and sand and treated with postemergence applications of test chemicals formulated in the same manner. Plants ranged in height from 2 to 10 cm and were in the one- to two-leaf stage for the postemergence treatment. Treated plants and untreated controls were maintained in a greenhouse for approximately 10 days, after which time all treated plants were compared to untreated controls and visually evaluated for injury. Plant response ratings, summarized in Table A, are based on a 0 to 100 scale where 0 is no effect and 100 is complete control. A dash (—) response means no test result.

For N#Cc1cccc(Oc2ncc(Cl)cn2)c1OC/C=C/Cl [Compound 7], which “Plant response rating, Barnyardgrass” value is on record?
The value was 20.

same assay, conditions: Preemergence, 125 g ai/ha; 0 to 100 scale (0 no effect, 100 complete control)

N#Cc1cccc(Oc2ncc(Cl)cn2)c1OC/C=C/Cl [Compound 7] was tested. Which “Plant response rating, Barnyardgrass” value did it give?
Its value is 100.

tested on: kochia (Kochia scoparia); experiment: Test A preemergence, kochia; assay type: in vivo; details: Preemergence, 31 g ai/ha; 0 to 100 scale (0 no effect, 100 complete control)
From the text: as §1, §2

N#Cc1cccc(Oc2ncc(Cl)cn2)c1OC/C=C/Cl [Compound 7] was tested. Which “Plant response rating, Kochia” value did it give?
Its value is 70.

same assay, conditions: Preemergence, 125 g ai/ha; 0 to 100 scale (0 no effect, 100 complete control)

For N#Cc1cccc(Oc2ncc(Cl)cn2)c1OC/C=C/Cl [Compound 7], which “Plant response rating, Kochia” value is on record?
The value was 100.

tested on: ragweed (common ragweed, Ambrosia elatior); experiment: Test A preemergence, ragweed; assay type: in vivo; details: Preemergence, 31 g ai/ha; 0 to 100 scale (0 no effect, 100 complete control)
From the text: as §1, §2

How did the “Plant response rating, Ragweed” value turn out when N#Cc1cccc(Oc2ncc(Cl)cn2)c1OC/C=C/Cl [Compound 7] was run?
Its value is 0.

same assay, conditions: Preemergence, 125 g ai/ha; 0 to 100 scale (0 no effect, 100 complete control)

With N#Cc1cccc(Oc2ncc(Cl)cn2)c1OC/C=C/Cl [Compound 7] as the molecule, how does the “Plant response rating, Ragweed” value read?
The value was 0.

tested on: ryegrass, Italian (Italian ryegrass, Lolium multiflorum); experiment: Test A preemergence, Italian ryegrass; assay type: in vivo; details: Preemergence, 31 g ai/ha; 0 to 100 scale (0 no effect, 100 complete control)
From the text: as §1, §2

For N#Cc1cccc(Oc2ncc(Cl)cn2)c1OC/C=C/Cl [Compound 7], which “Plant response rating, Ryegrass, Italian” value is on record?
The value was 0.

same assay, conditions: Preemergence, 125 g ai/ha; 0 to 100 scale (0 no effect, 100 complete control)

With N#Cc1cccc(Oc2ncc(Cl)cn2)c1OC/C=C/Cl [Compound 7] as the molecule, how does the “Plant response rating, Ryegrass, Italian” value read?
The value was 10.

tested on: foxtail, giant (giant foxtail, Setaria faberii); experiment: Test A preemergence, giant foxtail; assay type: in vivo; details: Preemergence, 31 g ai/ha; 0 to 100 scale (0 no effect, 100 complete control)
From the text: as §1, §2

With N#Cc1cccc(Oc2ncc(Cl)cn2)c1OC/C=C/Cl [Compound 7] as the molecule, how does the “Plant response rating, Foxtail, Giant” value read?
Its value is 60.

same assay, conditions: Preemergence, 125 g ai/ha; 0 to 100 scale (0 no effect, 100 complete control)

With N#Cc1cccc(Oc2ncc(Cl)cn2)c1OC/C=C/Cl [Compound 7] as the molecule, how does the “Plant response rating, Foxtail, Giant” value read?
Its value is 100.

tested on: pigweed (Amaranthus retroflexus); experiment: Test A preemergence, pigweed; assay type: in vivo; details: Preemergence, 31 g ai/ha; 0 to 100 scale (0 no effect, 100 complete control)
From the text: as §1, §2

With N#Cc1cccc(Oc2ncc(Cl)cn2)c1OC/C=C/Cl [Compound 7] as the molecule, how does the “Plant response rating, Pigweed” value read?
The value was 60.

same assay, conditions: Preemergence, 125 g ai/ha; 0 to 100 scale (0 no effect, 100 complete control)

For N#Cc1cccc(Oc2ncc(Cl)cn2)c1OC/C=C/Cl [Compound 7], which “Plant response rating, Pigweed” value is on record?
Its value is 100.

tested on: barnyardgrass (Echinochloa crus-galli); experiment: Test A postemergence, barnyardgrass; assay type: in vivo; details: 31 g ai/ha, postemergence; 0 to 100 scale, 0 is no effect, 100 is complete control; approximately 10 days
From the text: as §1, §2

With N#Cc1cccc(Oc2ncc(Cl)cn2)c1OC/C=C/Cl [Compound 7] as the molecule, how does the “Plant response rating, Barnyardgrass” value read?
Its value is 10.

same assay, conditions: 125 g ai/ha, postemergence; 0 to 100 scale, 0 is no effect, 100 is complete control; approximately 10 days

How did the “Plant response rating, Barnyardgrass” value turn out when N#Cc1cccc(Oc2ncc(Cl)cn2)c1OC/C=C/Cl [Compound 7] was run?
Its value is 90.

tested on: kochia (Kochia scoparia); experiment: Test A postemergence, kochia; assay type: in vivo; details: 31 g ai/ha, postemergence; 0 to 100 scale, 0 is no effect, 100 is complete control; approximately 10 days
From the text: as §1, §2

N#Cc1cccc(Oc2ncc(Cl)cn2)c1OC/C=C/Cl [Compound 7] was tested. Which “Plant response rating, Kochia” value did it give?
The value was 90.

same assay, conditions: 125 g ai/ha, postemergence; 0 to 100 scale, 0 is no effect, 100 is complete control; approximately 10 days

How did the “Plant response rating, Kochia” value turn out when N#Cc1cccc(Oc2ncc(Cl)cn2)c1OC/C=C/Cl [Compound 7] was run?
Its value is 100.

tested on: ragweed (common ragweed, Ambrosia elatior); experiment: Test A postemergence, ragweed; assay type: in vivo; details: 31 g ai/ha, postemergence; 0 to 100 scale, 0 is no effect, 100 is complete control; approximately 10 days
From the text: as §1, §2

With N#Cc1cccc(Oc2ncc(Cl)cn2)c1OC/C=C/Cl [Compound 7] as the molecule, how does the “Plant response rating, Ragweed” value read?
The value was 0.

same assay, conditions: 125 g ai/ha, postemergence; 0 to 100 scale, 0 is no effect, 100 is complete control; approximately 10 days

How did the “Plant response rating, Ragweed” value turn out when N#Cc1cccc(Oc2ncc(Cl)cn2)c1OC/C=C/Cl [Compound 7] was run?
Its value is 10.

tested on: ryegrass, Italian (Italian ryegrass, Lolium multiflorum); experiment: Test A postemergence, Italian ryegrass; assay type: in vivo; details: 31 g ai/ha, postemergence; 0 to 100 scale, 0 is no effect, 100 is complete control; approximately 10 days
From the text: as §1, §2

For N#Cc1cccc(Oc2ncc(Cl)cn2)c1OC/C=C/Cl [Compound 7], which “Plant response rating, Ryegrass, Italian” value is on record?
Its value is 10.

same assay, conditions: 125 g ai/ha, postemergence; 0 to 100 scale, 0 is no effect, 100 is complete control; approximately 10 days

Which “Plant response rating, Ryegrass, Italian” value does the source give for N#Cc1cccc(Oc2ncc(Cl)cn2)c1OC/C=C/Cl [Compound 7] here?
The value was 50.

tested on: foxtail, giant (giant foxtail, Setaria faberii); experiment: Test A postemergence, giant foxtail; assay type: in vivo; details: 31 g ai/ha, postemergence; 0 to 100 scale, 0 is no effect, 100 is complete control; approximately 10 days
From the text: as §1, §2

How did the “Plant response rating, Foxtail, Giant” value turn out when N#Cc1cccc(Oc2ncc(Cl)cn2)c1OC/C=C/Cl [Compound 7] was run?
Its value is 10.

same assay, conditions: 125 g ai/ha, postemergence; 0 to 100 scale, 0 is no effect, 100 is complete control; approximately 10 days

How did the “Plant response rating, Foxtail, Giant” value turn out when N#Cc1cccc(Oc2ncc(Cl)cn2)c1OC/C=C/Cl [Compound 7] was run?
The value was 90.

tested on: pigweed (Amaranthus retroflexus); experiment: Test A postemergence, pigweed; assay type: in vivo; details: 31 g ai/ha, postemergence; 0 to 100 scale, 0 is no effect, 100 is complete control; approximately 10 days
From the text: as §1, §2

Which “Plant response rating, Pigweed” value does the source give for N#Cc1cccc(Oc2ncc(Cl)cn2)c1OC/C=C/Cl [Compound 7] here?
The value was 60.

same assay, conditions: 125 g ai/ha, postemergence; 0 to 100 scale, 0 is no effect, 100 is complete control; approximately 10 days

For N#Cc1cccc(Oc2ncc(Cl)cn2)c1OC/C=C/Cl [Compound 7], which “Plant response rating, Pigweed” value is on record?
Its value is 90.

tested on: wheat (Triticum aestivum); experiment: Test A postemergence, wheat; assay type: in vivo; details: 31 g ai/ha, postemergence; 0 to 100 scale, 0 is no effect, 100 is complete control; approximately 10 days
From the text: as §1, §2

N#Cc1cccc(Oc2ncc(Cl)cn2)c1OC/C=C/Cl [Compound 7] was tested. Which “Plant response rating, Wheat” value did it give?
Its value is 0.

same assay, conditions: 125 g ai/ha, postemergence; 0 to 100 scale, 0 is no effect, 100 is complete control; approximately 10 days

How did the “Plant response rating, Wheat” value turn out when N#Cc1cccc(Oc2ncc(Cl)cn2)c1OC/C=C/Cl [Compound 7] was run?
The value was 10.

tested on: corn (Zea mays); experiment: Test A postemergence, corn; assay type: in vivo; details: 31 g ai/ha, postemergence; 0 to 100 scale, 0 is no effect, 100 is complete control; approximately 10 days
From the text: as §1, §2

With N#Cc1cccc(Oc2ncc(Cl)cn2)c1OC/C=C/Cl [Compound 7] as the molecule, how does the “Plant response rating, Corn” value read?
Its value is 10.

same assay, conditions: 125 g ai/ha, postemergence; 0 to 100 scale, 0 is no effect, 100 is complete control; approximately 10 days

N#Cc1cccc(Oc2ncc(Cl)cn2)c1OC/C=C/Cl [Compound 7] was tested. Which “Plant response rating, Corn” value did it give?
Its value is 20.

tested on: blackgrass (Alopecurus myosuroides); experiment: Test A postemergence, blackgrass; assay type: in vivo; details: 31 g ai/ha, postemergence; 0 to 100 scale, 0 is no effect, 100 is complete control; approximately 10 days
From the text: as §1, §2

N#Cc1cccc(Oc2ncc(Cl)cn2)c1OC/C=C/Cl [Compound 7] was tested. Which “Plant response rating, Blackgrass” value did it give?
The value was 10.

same assay, conditions: 125 g ai/ha, postemergence; 0 to 100 scale, 0 is no effect, 100 is complete control; approximately 10 days

Which “Plant response rating, Blackgrass” value does the source give for N#Cc1cccc(Oc2ncc(Cl)cn2)c1OC/C=C/Cl [Compound 7] here?
Its value is 30.

tested on: galium (catchweed bedstraw, Galium aparine); experiment: Test A postemergence, galium; assay type: in vivo; details: 31 g ai/ha, postemergence; 0 to 100 scale, 0 is no effect, 100 is complete control; approximately 10 days
From the text: as §1, §2

With N#Cc1cccc(Oc2ncc(Cl)cn2)c1OC/C=C/Cl [Compound 7] as the molecule, how does the “Plant response rating, Galium” value read?
Its value is 50.

same assay, conditions: 125 g ai/ha, postemergence; 0 to 100 scale, 0 is no effect, 100 is complete control; approximately 10 days

N#Cc1cccc(Oc2ncc(Cl)cn2)c1OC/C=C/Cl [Compound 7] was tested. Which “Plant response rating, Galium” value did it give?
The value was 80.
